For one molecule, inhibition results are on record in article PMC3653412 (European journal of pharmacology, 2012).

Each structure is given as a SMILES string.

A word on the inhibition: it is the share of the control response that was lost under treatment.

The target of this assay is complex I (NADH:ubiquinone oxidoreductase) (Rattus norvegicus, UniProt A6K8N6+P03889+Q641Y2). Nature of the assay: oxygen consumption of isolated mitochondria, Clark electrode. The assay is classed as biochemical. Conditions: read-out: % inhibition at 0.5 mM.

Consider `FC(F)OC(Cl)C(F)(F)F` (stereo not shown) [isoflurane], for which the inhibition at 500 µM turned out to be 28 ± 10%.
